Data as given in patent US20140163218A1, “NOVEL PHTHALOCYANINE DERIVATIVES FOR THERAPEUTIC USE” (MOLTENI THERAPEUTICS S.R.L., priority 2011, published 2014).
Marks after values point to notes of the source that are not given here.

Assays:
[1] = system: Escherichia coli; conditions: 99.9% reduction; 5 min incubation; red light 600-700 nm, 50 mW/cm^2 for 10 min, 30 J/cm^2
Protocol: (§1) The bacterial and fungal cells (ATCC of Staphylococcus aureus, Escherichia coli and Pseudomonas aeruginosa strains for the bacteria, Candida albicans for the yeasts) are grown in a Tryptic Soy Broth (TSB) liquid medium at 37° C. for 16-20 hr (bacteria) and in Sabouraud Dextrose Broth (SDB) at 37° C. for 24 hr (yeasts) in an aerobic atmosphere.
(§2) The cells are collected for centrifugation (2000 g, 15 min.) and re-suspended in sterile PBS (pH=7.3±0.1).
(§3) Exposure of the microorganisms to the photosensitiser and to the light source is carried out in wells of sterile, polystyrene, Microtiter plates, in PBS containing the desired concentration of photosensitiser. The plate is left to incubate at room temperature, for 5 min for the bacteria and for 1 hr at 37° C. for the yeasts. For lighting with red visible light a halogen lamp is used, model PDT 1200 Waldmann (A=600-700 nm) at 50 mW/cm^2 for 10 min and the total dose of light consequently used in the assay is of 30 J/cm^2.
(§4) After illuminating the bacterial or fungal suspension, and suitable dilutions thereof in sterile PBS, they are inoculated on agar plates to determine the number of residual UFCs. The plates are incubated at 37° C. for 24 hours and the results are recorded at the end of this period.

[2] = system: Staphylococcus aureus; conditions: 99.9% reduction; 5 min incubation; red light 600-700 nm, 50 mW/cm^2 for 10 min, 30 J/cm^2
Protocol: as §1, §2, §3, §4

[3] = system: Pseudomonas aeruginosa; conditions: 99.9% reduction; 5 min incubation; red light 600-700 nm, 50 mW/cm^2 for 10 min, 30 J/cm^2
Protocol: as §1, §2, §3, §4

[4] = system: Candida albicans; conditions: 99.9% reduction; 1 hr incubation at 37° C.; red light 600-700 nm, 50 mW/cm^2 for 10 min, 30 J/cm^2
Protocol: as §1, §2, §3, §4

[5] = Stability in water by HPLC (loss of titre and purity after 8 hours); format: physicochemical; conditions: 1 mg/mL in DMSO diluted 1:10 with deionised water, HPLC at time 0 and after 8 hours; result in words
Protocol: Protocol: each sample is dissolved in DMSO at the concentration of 1 mg/mL and then diluted 1:10 with deionised water. The solution is analysed in HPLC at time 0 and after 8 hours and any loss of titre and/or of purity is recorded by the following method: Column: Luna C18 (2) 150*4.6 mm (5 μm);
elution in gradient of AcOH 0.1% in water (Eluent A) and methanol (Eluent B) with % B 10-100 in 20 min or 40-100 depending on the polarity of the injected compound; flow 1 mL/min; temperature: 25° C.; injection […]; detection at 686 nm, bw 20 nm.

Substance | MBC, 3 log (μM) E. coli [1] [μM] | MBC, 3 log (μM) S. aureus [2] [μM] | MBC, 3 log (μM) P. aeruginosa [3] [μM] | MFC, 3 log (μM) C. albicans [4] | Loss of purity (% area) [5] | Loss of titre (%) [5]
{bis-[3-(N-methyl-piperidin-1-ium)propyl-dipropvlsilyloxy]}silicon(IV) phthalocyanine dichloride [Compound 4] | 6.25 | 0.03 | 50 | 3.13* μM | insignificant (of ≦ to 0.1% for the loss of purity) | insig- nificant
{bis-[3-(m-N,N,N-trimethylammoniumphenyloxy)propyl-dipropylsilyloxyl]}silicon(IV) phthalocyanine dichloride [Compound 5] | 25 | 0.1 | 25 | 50 μM | insignificant (of ≦ to 0.1% for the loss of purity) | insig- nificant
{bis-[bis-(3-N,N,N-trimethylammoniumpropyl)]propylsilyloxy}silicon(IV) phthalocyanine tetrachloride [Compound 2] | 6.25 | 0.25 | 6.25 | >50 μM | insignificant (of ≦ to 0.1% for the loss of purity) | insig- nificant
{bis-[bis-(p-N,N,N-trimethylammoniumphenyl)]-3-(N-methyl-piperidine-1-ium)propylsilyloxy}silicon(IV) phthalocyanine hexachloride [Compound 1] | 6.25 | 0.78 | 6.25 | 12.5 μM | insignificant (of ≦ to 0.1% for the loss of purity) | insig- nificant
{bis-[bis-(p-N,N,N-trimethylammoniumphenyl)]propylsilyloxy}silicon(IV) phthalocyanine tetrachloride [Compound 3] | 3.13 | 0.05 | 1.56 | >50 μM | insignificant (of ≦ to 0.1% for the loss of purity) | insig- nificant
